Read-outs that look alike come from different tables or passages of the source.
What was measured:
in vitro [1] = type: in vitro ADME; settings: s9, pH 7.4
Protocol: (§1) Duplicate aliquots of test compound or positive control substrate (GS-7340) were added to S9 stock diluted with 100 mM potassium phosphate buffer, pH 7.4, to obtain a protein concentration of 2.4 mg/mL. The S9 metabolic reactions were initiated by the addition of the substrates to the S9 reaction mixture to a final concentration of 2 μM. At 2, 12, 25, 45, 65 and 90 min, 25 μL aliquots of the reaction mixture were transferred to plates containing 225 μl of IS/Q solution. After quenching, the plates were centrifuged at 3000×g for 30 minutes, and 150 μl, aliquots of each supernatant were diluted with 150 μl, water. Aliquots (10 μL) of the diluted supernatant were analyzed on a Thermo Q-Exactive mass spectrometer as described below.
(§2) Quantification of test compounds and controls was performed by analyte/internal standard peak area ratio (PAR) values measured on a Thermo Q-Exactive mass spectrometer coupled to a Dionex UltiMate 3000 HPLC with a Leap Technologies HTC PAL autosampler. The column used was a Thermo Hypersil GOLD (1.9 μm particle size, 2.1×50 mm). Mobile phase A consisted of 0.1% (v/v) formic acid in water. Mobile phase B consisted of 0.1% (v/v) formic acid in acetonitrile. Elution of analytes was achieved by a series of linear gradients of acetonitrile in water containing 0.1% (v/v) formic acid. The mass spectrometer was calibrated on a weekly basis and mass tolerance of 5 ppm was used.

[2] = male, Sprague-Dawley, rat, in vivo, po, 6 mg/kg
[3] = system: RSV-Fluc (Respiratory Syncytial virus strain A2 containing the firefly luciferase reporter); assay: microbe, parasite or virus in culture; type: cell-based; settings: human respiratory syncytial virus, 72 h, NHBE cells, three days
CES1 = molecular target: T1, CES1 (Homo sapiens, UniProt P23141); assay: CES1/2 stability, CES1; type: in vitro ADME; settings: CES1 Supersome preparation; Supersome preparations, CES 1.5 mg/ml, 2 μM substrate, pH 7.4, 37° C.; read-out: CES1 T1/2
T1 construct: purchased
T1 sequence (P23141 18-567): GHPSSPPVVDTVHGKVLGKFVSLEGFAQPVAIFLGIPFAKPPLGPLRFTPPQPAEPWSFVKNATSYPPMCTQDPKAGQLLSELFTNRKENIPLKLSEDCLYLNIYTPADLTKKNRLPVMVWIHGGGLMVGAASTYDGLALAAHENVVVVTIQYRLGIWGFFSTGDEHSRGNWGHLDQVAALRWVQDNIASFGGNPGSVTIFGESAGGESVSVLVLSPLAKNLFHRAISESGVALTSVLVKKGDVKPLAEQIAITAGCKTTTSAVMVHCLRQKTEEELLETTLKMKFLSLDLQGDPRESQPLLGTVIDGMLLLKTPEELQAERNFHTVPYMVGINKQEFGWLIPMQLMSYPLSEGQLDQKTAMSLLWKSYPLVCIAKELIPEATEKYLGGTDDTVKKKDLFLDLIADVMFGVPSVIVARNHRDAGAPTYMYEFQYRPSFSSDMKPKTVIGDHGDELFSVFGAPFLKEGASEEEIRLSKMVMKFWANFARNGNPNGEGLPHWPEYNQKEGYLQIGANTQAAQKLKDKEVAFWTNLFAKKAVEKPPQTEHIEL
Protocol: (§3) Test compounds or positive control substrates (oseltamivir for CES1 enzymes or procaine for CES2) were incubated with individual Supersome preparations (final CES concentration 1.5 mg/ml) in 0.1 M potassium phosphate buffer (pH 7.4) at 37° C. Substrates were added to a final concentration of 2 μM to initiate the reaction. The final incubation volume was 250 μL. Aliquots were removed after incubation for 0, 10, 30, 60 and 120 min. The reactions were stopped by the addition of IS/Q. Following protein precipitation and centrifugation, 150 μL of supernatant was diluted with an equal volume of water prior to LC-MS analysis. For procaine 150 μL of supernatant was dried down and reconstituted with 250 μL water. All samples were analyzed by LC-MS and the PAR values were used for quantification.

CES2 = molecular target: T2, CES2 (Homo sapiens, UniProt O00748); assay: CES1/2 stability, CES2; type: in vitro ADME; settings: CES2 Supersome preparation; Supersome preparations, CES 1.5 mg/ml, 2 μM substrate, pH 7.4, 37° C.; read-out: CES2 T1/2
T2 construct: purchased
T2 sequence (O00748 27-559): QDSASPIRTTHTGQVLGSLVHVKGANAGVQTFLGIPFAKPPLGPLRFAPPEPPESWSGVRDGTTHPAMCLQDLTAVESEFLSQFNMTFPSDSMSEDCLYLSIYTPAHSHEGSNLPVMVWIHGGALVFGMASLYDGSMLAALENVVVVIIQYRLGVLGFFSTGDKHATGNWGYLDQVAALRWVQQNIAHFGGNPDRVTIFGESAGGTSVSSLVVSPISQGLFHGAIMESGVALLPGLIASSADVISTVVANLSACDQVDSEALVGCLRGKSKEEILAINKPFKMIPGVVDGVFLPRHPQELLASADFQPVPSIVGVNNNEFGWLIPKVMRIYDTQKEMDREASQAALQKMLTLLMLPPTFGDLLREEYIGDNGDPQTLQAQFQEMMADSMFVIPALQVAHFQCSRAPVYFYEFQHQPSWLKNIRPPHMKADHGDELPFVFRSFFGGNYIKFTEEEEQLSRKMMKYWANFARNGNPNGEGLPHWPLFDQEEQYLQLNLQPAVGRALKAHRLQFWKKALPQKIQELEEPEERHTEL
Protocol: as §3

SARS-CoV-2-Nluc viruses = assay: microbe, parasite or virus in culture; type: cell-based; settings: Severe acute respiratory syndrome coronavirus 2, 48 h; read-out: SARS-CoV2 EC50
in vitro [4] = type: in vitro ADME, Human; settings: human, s9, pH 7.4
Protocol: as §1, with “mM” for “mM potassium”, “buffered saline,” for “buffer,”, “1.0” for “2.4”, “0, 10, 20, 30, 60” for “2, 12, 25, 45, 65”, “120” for “90”, “μL” for “μl,”
as §2

RSV strain A2 = assay: RSV antiviral assay (Hep2), EC50-Hep2/B1-384; type: cell-based; settings: human respiratory syncytial virus, HEp-2, 96 h; Hep2 cells, 4 days, Cell-Titer Glo
Plasma stability = settings: human
SARS-CoV-2 = system: SARS-CoV-2; design: species or system ferrets; settings: in vivo, po
in vitro [5] = type: cell-based; settings: human
Protocol: The cytotoxicity of compounds was determined in A549-hACE2 cells in the following manner. Compounds (200 nL) were spotted onto 384-well Grenier plates prior to seeding 5000 A549-hACE2 cells/well in a volume of 40 μL culture medium. The plates were incubated at 37° C. for 48 hours with 5% CO2. On day 2, 40 μL of CellTiter-Glo (Promega) was added and mixed 5 times.

[6] = type: in vivo, Sprague-Dawley rats; settings: male, Sprague-Dawley, rat, in vivo, po, 12.7 mg/kg
Protocol: β-d-N^4-hydroxycytidine (NHC) was dosed orally by gavage to male Sprague-Dawley rats (n=3) at 10 mg/kg in 3.9% citric acid and 96.1% water, pH 2.8; Molnupiravir at 12.7 mg/kg in 2.5% kolliphor RH 40, 10% polyethylene glycol 300 and 87.5% water, pH 5.3. […]

[7] = system: SARS-CoV-2 2019-nCoV/USA-WA1/2020; type: in vivo; settings: in vivo

**Q.** What does the source list for CC(C)C(=O)OC[C@H]1O[C@@](C#N)(c2ccc3c(N)ncnn23)[C@H](O)[C@@H]1O [Compound 15, ((2R,3S,4R,5R)-5-(4-aminopyrrolo[2,1-f][1,2,4]triazin-7-yl)-5-cyano-3,4-dihydroxytetrahydrofuran-2-yl)methyl isobutyrate]?
**A.** half-life at 2 μM (in vitro [1]): 1.2 min; Cmax [2]: 2.1 µM; EC50 [3]: 588 nM; half-life at 2 μM (CES1): 6 min; half-life at 2 μM (CES2): < 1 min; EC50 (SARS-CoV-2-Nluc viruses): 1030 nM; half-life at 2 μM (in vitro [4]): 69 min; EC50 (RSV strain A2): 407 nM; half-life at 2 μM (Plasma stability): 29 min; Change from vehicle, nasal lavage AUC(0-96) PFU/mL (SARS-CoV-2; 5 mg/kg): −2.21 log10; Change from vehicle, nasal lavage AUC(0-96) RNA copies/μL (SARS-CoV-2; 5 mg/kg): −1.33 log10; Change from vehicle, nasal turbinate terminal PFU/mL (SARS-CoV-2; 5 mg/kg): −1.68 log10; Change from vehicle, nasal turbinate terminal RNA copies/μL (SARS-CoV-2; 5 mg/kg): −2.14 log10; Change from vehicle, nasal lavage AUC(0-96) PFU/mL (SARS-CoV-2; 10 mg/kg): −2.50 log10; Change from vehicle, nasal lavage AUC(0-96) RNA copies/μL (SARS-CoV-2; 10 mg/kg): −1.51 log10; Change from vehicle, nasal turbinate terminal PFU/mL (SARS-CoV-2; 10 mg/kg): −2.20 log10; Change from vehicle, nasal turbinate terminal RNA copies/μL (SARS-CoV-2; 10 mg/kg): −1.79 log10; Change from vehicle, nasal lavage AUC(0-96) PFU/mL (SARS-CoV-2; 40 mg/kg): −2.80 log10; Change from vehicle, nasal lavage AUC(0-96) RNA copies/μL (SARS-CoV-2; 40 mg/kg): −1.91 log10; Change from vehicle, nasal turbinate terminal PFU/mL (SARS-CoV-2; 40 mg/kg): −3.79 log10; Change from vehicle, nasal turbinate terminal RNA copies/μL (SARS-CoV-2; 40 mg/kg): −4.01 log10; CC50 at 48 h (in vitro [5]): > 50000 nM

**Q.** Which results are given for CC(C)C(=O)OC[C@H]1O[C@@H](n2ccc(NO)nc2=O)[C@H](O)[C@@H]1O [Molnupiravir, reference compound]?
**A.** Cmax [6]: 4.09 µM; NHC AUCinf. [6]: 8.96 µM·h; NHC F % (based on NHC mg-eq dose) [6]: 39.1%; NHC F % (based on molnupiravir dose) [6]: 30.8%; half-life at 2 μM (CES1): 30 to 51 min; half-life at 2 μM (CES2): 9.8 min; half-life at 2 μM (in vitro [4]): > 700 min; half-life at 2 μM (Plasma stability): 51 min; Clinical signs versus vehicle animals [7]: No significant differences in clinical signs; Shed virus load (nasal lavages) versus vehicle [7]: lower in all treated animals than in the vehicle group; Viral RNA copies in nasal lavages and turbinates versus vehicle [7]: statistically significant mean reduction; Virus burden in the turbinates [7]: reduced burden in the turbinates; Change from vehicle, nasal lavage AUC(0-96) PFU/mL (SARS-CoV-2; 5 mg/kg): −2.34 log10; Change from vehicle, nasal lavage AUC(0-96) RNA copies/μL (SARS-CoV-2; 5 mg/kg): −0.87 log10; Change from vehicle, nasal turbinate terminal PFU/mL (SARS-CoV-2; 5 mg/kg): −3.79 log10; Change from vehicle, nasal turbinate terminal RNA copies/μL (SARS-CoV-2; 5 mg/kg): −2.68 log10

Reference: patent publication US11926645B2, “Compounds and methods for treatment of viral infections” (priority 2020, dated 2024)
